According to PMC10879876, “Activatable prodrug for controlled release of an antimicrobial peptide via the proteases overexpressed in Candida albicans and Porphyromonas gingivalis” (Theranostics, 2024):
Where no end group is shown, it is not given here.

Experiments:
RgpB = biological target: T1, RgpB (Porphyromonas gingivalis, UniProt P95493); assay: Enzyme digestion by recombinant RgpB (MALDI-TOF / ESI-MS); format: biochemical; conditions: 37 °C
T1 construct: gift from Professor Anthony O'Donoghue (UC San Diego)
Protocol: (§1) Probe activation, kinetics, and cytotoxicity.
(§2) Enzyme digestion. SAP9 and RgpB cleavage were both performed with 455 µM of peptide. […] Then, 10 µL of the enzyme at the appropriate concentration was added. An optimized final concentration of 300 nM for SAP9 and 200 nM for RgpB were used. The solution was incubated at 37 °C for 3 hours for RgpB and SAP9 for optimal cleavage.

C. albicans [1] = assay: Kirby-Bauer disk diffusion, C. albicans; format: cell-based, Candida albicans; conditions: disks treated with 1 mM, five-day incubation at 30 °C
P. gingivalis [2] = assay: XTT viability assay, P. gingivalis; format: cell-based, Porphyromonas gingivalis; conditions: 10 µM
C. albicans [3] = assay: ROS H2O2 luminescence assay, C. albicans; format: cell-based, Candida albicans; conditions: 10 μM, 4 hours, ROS-Glo H2O2 assay, versus cells + PBS
Protocol: (§3) The assay uses an H2O2 substrate that reacts directly with H2O2 to generate a luciferin precursor [55]. It was predicted that exposure of the microorganisms to the prodrug would lead to alterations in their normal physiological processes thus triggering a stress response and inducing the generation of ROS. […] This is consistent with previous studies wherein ROS production is credited as the secondary event of the fungicidal mechanism of P-113 [56]. […]
(§4) peptides for 3 hours at 37 °C. Next, cells were washed three times with sterile PBS. Mammalian […]
(§5) PBS (Thermo Scientific) at room temperature for 20 min. […]
(§6) Cells were cultured in complete Dulbecco’s
(§7) Streptomycin), at 37 °C and 5% CO2. Passages were conducted with 0.25% Trypsin EDTA before […]
(§8) signal that is proportional to H2O2 concentration. Cells were seeded into 96-well plates (Corning, […]
(§9) then incubated for 4 hours at 37 °C before 100µl of ROS-Glo™ Detection Solution was added to each well. Finally, the plate was incubated for 20 minutes at room temperature and the relative luminescence was recorded using a plate reader (Synergy H1, BioTek). […]
(§10) LoB = meanblank + 1.645 (SDblank) […]
(§11) LoD = LoB + 1.645 (SDlow concentration sample).
(§12) Statistical Analysis. Statistical analysis was conducted using GraphPad Prism 10. […]
(§13) A P-value of < 0.05 was […]
(§14) considered significant. […]

P. gingivalis [4] = assay: Kirby-Bauer disk diffusion, P. gingivalis; format: cell-based, Porphyromonas gingivalis; conditions: disks treated with 1 mM, five-day incubation at 37 °C
C. albicans [5] = assay: XTT viability assay, C. albicans; format: cell-based, Candida albicans; conditions: intact peptide, 10 µM, 3 h at 37 °C, absorbance 490 nm, sextuplet measurements
Protocol: Fungal culture. In situ culturing C. albicans (ATCC 90028) from lyophilized stock (KWIK-STIK, VWR) was conducted on Sabouraud dextrose agar plates (Sigma-Aldrich) 2 to 5 days in advance of the antifungal assay. The plates were then incubated at 30°C and pearl-like colonies were observed, indicative of C. albicans. Single colonies were then extracted with sterilized inoculation loops and inoculated in 3 mL yeast extract peptone dextrose (YEPD) medium (2% Bacto^TMpeptone, 2% Dextrose, 1% Yeast extract in H2O) using Biological Safety Level 2 (BSL-2) practices and procedures. Note, the broth was autoclaved before use and stored at room temperature. […] The culture was finally diluted 1:100 and the OD600 was measured wherein OD600 = 0.5 a.u. correlates to approximately 1 × 10^6 cells/ mL in 100 µL RPMI-1640 medium with L-glutamine and 3-(N-morpholino)propane sulfonic acid (MOPS) without sodium bicarbonate, pH 7.0. […]
Viability assay. The percent toxicity was calculated using an XTT (2,3-bis-(2-methoxy-4-nitro-5-sulfophenyl)-2H-tetrazolium-5-carboxanilide) colorimetric assay (Biotium) wherein viable cells form an orange formazan product upon reduction. […] The absorbance of the formazan dye was measured at a wavelength of 490 nm using a microplate reader. Here, the absorbance is directly proportional to the number of viable cells present in each well. […]

SAP9 = biological target: T2, SAP9 (Candida albicans, UniProt Q59SU1); assay: Enzyme digestion by recombinant SAP9 (MALDI-TOF / ESI-MS); format: biochemical; conditions: 37 °C; for Cleavage / degradation by SAP9: 300 nM recombinant SAP9, 3 h, 9.5 mM MES, 2.7 mM KCl, 140 mM NaCl pH 5.5, 455 µM peptide, MALDI-TOF (ESI-MS for P-113)
T2 construct: purchased MyBioSource (San Diego, CA)
Protocol: as §1, §2

F. nucleatum = assay: XTT viability assay, F. nucleatum; format: cell-based, Fusobacterium nucleatum; conditions: intact peptide
P. gingivalis [6] = assay: ROS H2O2 luminescence assay, P. gingivalis; format: cell-based, Porphyromonas gingivalis; conditions: 10 μM, 4 hours, ROS-Glo H2O2 assay, versus cells + PBS
Protocol: as §3, §4, §5, §6, §7, §8, §9, §10, §11, §12, §13, §14

C. albicans [7] = assay: TEM of cell morphology, C. albicans; format: cell-based, Candida albicans; conditions: 3 hours at 37 °C; S1 at 40 µM
From the text: (§15) Finally, the target microorganisms were also imaged using transmission electron microscopy (TEM) to visualize the cell morphology. Figure 3C presents C. albicans cells. On the left, the untreated cells show a rigid and intact membrane in contrast to the […] (+ S1) showing decreased cell density and clear destruction of the membranes. This obvious change in morphology is seen at other magnifications (Supplementary Figure S19). […]
(§16) standard curve: ∆PLCy5.5 vs. [fully-digested FRET probe]. Data were then fitted to the following Michaelis-Menten equation: ! = !!"#[…]. […]
(§17) amino acid sequences were provided. PEP-FOLD then employs a physics-based energy function […]
(§18) structures for the given peptide sequence. […]
(§19) dynamics sampling approach. […]
(§20) energy and the agreement with experimental or theoretical constraints. The algorithm selects the […]
(§21) allowed to grow overnight. […]
as §4
(§22) PBS (Thermo Scientific) at room temperature for 20 min. Cells were imaged by a confocal […]
(§23) Transmission Electron Microscopy. […]
(§24) by air drying overnight. Cellular morphology was conducted using the same microscope. Here, […]
(§25) nanomedicine lab (UCSD NanoEngineering). Cells were cultured in complete Dulbecco’s […]
as §7

P. gingivalis [8] = assay: TEM of cell morphology, P. gingivalis; format: cell-based, Porphyromonas gingivalis; conditions: 3 hours at 37 °C; G1 at 40 µM
From the text: as §15, §16, §17, §18, §19, §20, §21, §4, §22, §23, §24, §25, §7

HEK293T [9] = assay: Confocal microscopy of membrane integrity, HEK293T; format: cell-based, human; conditions: 100 µM prodrug, 3 hours at 37 °C, CellBrite Fix Membrane Stain 640
Protocol: as §16, §17, §18, §19, §20, §21, §4, §22, §23, §24, §25, §7, §8

HEK293T [10] = assay: XTT viability assay, HEK293T; format: cell-based, human
C. albicans [11] = tested on: C. albicans; parameters: method as in PMID 27458227; conditions: previous work; cited from earlier work

T2 sequence (Q59SU1 18-544): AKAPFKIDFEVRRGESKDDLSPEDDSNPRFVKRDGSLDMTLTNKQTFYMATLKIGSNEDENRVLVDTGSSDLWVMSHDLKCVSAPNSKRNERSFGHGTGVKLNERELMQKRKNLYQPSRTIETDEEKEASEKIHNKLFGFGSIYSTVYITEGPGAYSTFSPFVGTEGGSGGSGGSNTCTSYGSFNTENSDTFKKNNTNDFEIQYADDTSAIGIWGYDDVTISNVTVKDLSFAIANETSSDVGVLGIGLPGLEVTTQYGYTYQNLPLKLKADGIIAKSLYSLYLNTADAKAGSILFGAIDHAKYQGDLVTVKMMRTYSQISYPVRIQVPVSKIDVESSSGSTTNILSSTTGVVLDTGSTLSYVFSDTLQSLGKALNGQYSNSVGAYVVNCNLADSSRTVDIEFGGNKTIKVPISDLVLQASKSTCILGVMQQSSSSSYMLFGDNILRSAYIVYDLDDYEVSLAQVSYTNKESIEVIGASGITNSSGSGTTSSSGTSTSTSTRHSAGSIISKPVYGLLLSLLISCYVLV
T1 sequence (P95493 230-736): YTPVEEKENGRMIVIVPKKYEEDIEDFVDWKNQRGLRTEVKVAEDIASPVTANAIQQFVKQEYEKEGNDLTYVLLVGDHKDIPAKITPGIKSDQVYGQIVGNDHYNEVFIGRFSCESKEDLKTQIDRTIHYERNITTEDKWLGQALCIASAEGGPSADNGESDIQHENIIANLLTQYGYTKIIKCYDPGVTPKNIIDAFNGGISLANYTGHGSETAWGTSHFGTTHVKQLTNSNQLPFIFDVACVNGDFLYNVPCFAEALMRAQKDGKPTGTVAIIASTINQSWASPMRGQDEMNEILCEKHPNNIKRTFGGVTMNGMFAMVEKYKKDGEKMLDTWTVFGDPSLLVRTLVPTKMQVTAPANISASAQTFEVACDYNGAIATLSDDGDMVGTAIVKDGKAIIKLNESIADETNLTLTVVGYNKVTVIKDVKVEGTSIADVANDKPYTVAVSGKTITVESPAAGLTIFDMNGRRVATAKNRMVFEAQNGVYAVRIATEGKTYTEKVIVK

Ac-AKRHHGYKRKFHGGVKKKDVVDGGDDDDDD-NH2 [S1]
Cleavage by RgpB, S1 and G1 co-incubated (RgpB; joint solution of S1 and G1, RgpB 300nM, 3 hours, MALDI-TOF): S1 remaining intact
Inhibited growth relative to the positive control treatment (FLZ) (C. albicans [1]; disk diffusion, diameter relative to fluconazole): approximately 70%
Growth inhibition in disk diffusion test (C. albicans [1]): Obvious growth inhibition
Change of percent toxicity upon cleavage (P. gingivalis [2]; S1 pre-cleaved in vitro by 300 nM recombinant SAP9 versus intact (30%)): nearly doubled
Percent toxicity (P. gingivalis [2]; intact peptide, 3 h at 37 °C, absorbance 490 nm, sextuplet measurements): 30%
H2O2 ROS generation, relative luminescence (C. albicans [3]): six-fold increase
Growth inhibition in disk diffusion test (P. gingivalis [4]): No growth inhibition
Percent toxicity (C. albicans [5]): 70%
Cleavage / degradation by SAP9 (SAP9): obvious mass peaks corresponding to the cleaved fragments
Cleavage by SAP9, S1 and G1 co-incubated (SAP9; joint solution of S1 and G1, SAP9 300 nM, 3 hours, MALDI-TOF): S1 converting to S1 fragment
Percent toxicity (F. nucleatum; 10 µM, 3 h at 37 °C): 15%
Percent toxicity, highest over the titration (F. nucleatum; all tested concentrations): ≤ 50%
H2O2 ROS generation, relative luminescence (P. gingivalis [6]): little luminescence
Cell morphology by TEM (C. albicans [7]): decreased cell density and cell rupturing
Cell morphology by TEM (P. gingivalis [8]): intact cell structures

AKRHHGYKRKFHGGAGPRIDGGDDDDDD-NH2 [G1]
Membrane integrity by confocal microscopy (HEK293T [9]): membrane remained intact
Toxicity to HEK293T compared to P-113 (HEK293T [10]; intact prodrug, 10 µM, XTT): decreased toxicity by nearly half

OC(Cn1cncn1)(Cn1cncn1)c1ccc(F)cc1F [FLZ, fluconazole, reference compound]
Growth inhibition in disk diffusion test (C. albicans [1]): Obvious growth inhibition

Ac-AKRHHGYKRKFH-NH2 [P-113, reference compound]
Cleavage / degradation by RgpB (RgpB; 200 nM recombinant RgpB, 3 h, 0.2 M Tris HCl pH 7.6, 5 mM CaCl2, 100 mM NaCl, 40 mM TCEP, 455 µM peptide, MALDI-TOF (ESI-MS for P-113)): no degradation
Growth inhibition in disk diffusion test (C. albicans [1]): Obvious growth inhibition
H2O2 ROS generation, relative luminescence (C. albicans [3]): six-fold increase
Growth inhibition in disk diffusion test (P. gingivalis [4]): Colony growth is inhibited
Cleavage / degradation by SAP9 (SAP9): no degradation
H2O2 ROS generation, relative luminescence (P. gingivalis [6]): six-fold increase
MIC (C. albicans [11]): 10 µM
MIC for HEK293T relative to MIC for the oral microorganisms (HEK293T [10]): ~100 times
